Measured values taken from patent US10792291B2, “Applications for levonorgestrel in preparing anti-ovarian cancer products” (SHANGHAI JIAO TONG UNIVERSITY, priority 2015, dated 2020).

What was measured:
Type in all cases: cell-based
[1] = system: SKOV-3 ovarian cancer cells; assay: CELLTITER-GLO Luminescent Cell Viability Assay, SKOV-3 ovarian cancer cells
Source text: In example 1, CELLTITER-GLO was used to test levonorgestrel against ovarian cancer. m) A cell counter was used to count the number of suspended cells and adjust the cell suspension to an appropriate density in the plate to carry out cell plating experiments. n) SKOV-3 cells were handled as described above, and a SKOV-3 96-well cell culture plate was obtained. The complete medium for SKOV-3 cells was McCOY'S 5A (a live product), Cat #16600082, with a cells/well density of 12000. 2. The drug analyte levonorgestrel was prepared and administered (200× final concentration): a) DMSO was used to dilute the analyte levonorgestrel to 20 mM for use. b) 79 μL of the 20 mM analyte prepared in step a) was added to the first well in the first row of the dilution plate, and then 54 μL of DMSO solution was added to the second through ninth wells of the first row. […] The final concentrations (μM) of the analyte drug in wells 2-10 in FIG. 1 are, in order: 100, 31.64557, 10.01442, 3.16912, 1.002886, 0.317369, 0.100433, 0.031783, 0.010058; B. CELLTITER-GLO Luminescent Cell Viability Assay System a) Before testing, the SKOV-3 96-well drug screening plate described in 3 above was stabilized to room temperature for 20-30 minutes. c) 100 μl of CellTiter-Glo reagent (prepared as described in 1 above) was added to all drug screening plates and mixed evenly. d) It was thoroughly oscillated in a 96-well microplate oscillator for 2 minutes to allow the cells to undergo full lysis. e) It was stored away from light at room temperature for 15 minutes before carrying out luminescent signal detection to ensure signal stability. f) An EnSpire multi-function plate reader was used at 570 nm to read the luminescent signals. g) Data was processed and analyzed.

[2] = system: NCI-H1993 human lung non-small cell carcinoma cells; assay: CELLTITER-GLO cell viability assay, NCI-H1993 cells (same method)
Description: (§1) In the examples below, the product sources for the SKOV-3 ovarian cancer cells, the NCI-H1993 non-small cell human lung cancer cells, and the NCI-H441 human lung adenocarcinoma cells are as follows: In example 1, CELLTITER-GLO was used to test levonorgestrel against ovarian cancer. c) The SKOV-3 96-well cell plates prepared in step 1 were removed from the incubator, and 10 μl of the cell culture media (10× final concentration) with varying drug concentrations as described in b) above was added to the SKOV-3 96-well cell culture plate row-by-row as shown in FIG. 1. It was placed into a CO2 incubator at 37° C. for 72 hours, obtaining the SKOV-3 96-well drug screening plate. The final concentrations (μM) of the analyte drug in wells 2-10 in FIG. 1 are, in order: 100, 31.64557, 10.01442, 3.16912, 1.002886, 0.317369, 0.100433, 0.031783, 0.010058; B. CELLTITER-GLO Luminescent Cell Viability Assay System c) 100 μl of CellTiter-Glo reagent (prepared as described in 1 above) was added to all drug screening plates and mixed evenly. f) An EnSpire multi-function plate reader was used at 570 nm to read the luminescent signals. The same method was used to test levonorgestrel's action on the IC50 values of NCI-H1993 human lung non-small cell carcinoma cells and NCI-H441 human lung adenocarcinoma cells; results are shown in Table 1.

[3] = system: NCI-H441 human lung adenocarcinoma cells; assay: CELLTITER-GLO cell viability assay, NCI-H441 cells (same method)
Description: as §1

IC50 ([1]; Homo sapiens, SK-OV-3, SKOV-3 cells, 72 hours, CellTiter-Glo): 3.34 µM | EC50 ([1]; Homo sapiens, SK-OV-3, SKOV-3 cells, 72 hours, CellTiter-Glo, FIG. 2): 3.08 µM | IC50 [2]: ≥ 100 µM | IC50 [3]: ≥ 100 µM
Structure (SMILES): C#C[C@]1(O)CC[C@H]2[C@@H]3CCC4=CC(=O)CC[C@@H]4[C@H]3CC[C@@]21CC [levonorgestrel]
effect on the proliferation of ovarian cancer cells ([1]; compared with NCI-H441 and NCI-H1993 lung cancer cells): specific inhibitory effect
